Here are results for one compound from PMC10615259, “The Aurora kinase B relocation blocker LXY18 triggers mitotic catastrophe selectively in malignant cells” (PLOS ONE, 2023).

Holding throughout (experiment): radiometric kinase assay (Eurofins KinaseProfiler)
What all share (assay type): biochemical
What all share (conditions): 2 µM LXY18; Mg/ATP; 120 min; room temperature; no pre-incubation

For experiment [1], the target named is T1, ABL (Homo sapiens, UniProt P00519, H396P).
T1 construct: gene ABL1; Eurofins KinaseProfiler panel kinase

In experiment [2] the target is T2, ABL (Homo sapiens, UniProt P00519).
T2 construct: gene ABL1; Eurofins KinaseProfiler panel kinase

The target of experiment [3] is T3, MKK3 (Homo sapiens, UniProt P46734).
T3 construct: gene MAP2K3; Eurofins KinaseProfiler panel kinase
T3 sequence (P46734 1-347): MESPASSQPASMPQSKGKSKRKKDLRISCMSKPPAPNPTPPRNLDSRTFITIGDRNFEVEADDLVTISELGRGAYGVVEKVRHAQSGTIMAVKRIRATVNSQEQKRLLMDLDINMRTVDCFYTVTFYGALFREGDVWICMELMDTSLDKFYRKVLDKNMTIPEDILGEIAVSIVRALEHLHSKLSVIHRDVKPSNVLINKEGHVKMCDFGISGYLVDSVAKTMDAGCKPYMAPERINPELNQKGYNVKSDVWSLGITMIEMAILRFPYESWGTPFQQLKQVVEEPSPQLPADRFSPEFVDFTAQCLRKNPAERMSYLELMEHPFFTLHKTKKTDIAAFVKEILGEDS

Each structure is given as a SMILES string.

For `COc1cc(NC(C)=O)cc(Oc2ccnc3ccc(Br)cc23)c1` [LXY18, N-(3-((6-bromoquinolin-4-yl)oxy)-5-methoxyphenyl)acetamide], the “% inhibition at 2 μM” value is “MKK3, ABL, and an activating mutant ABL (H396P)” in experiment [1]; “The only positive hits in the kinome assay were MKK3, ABL, and an activating mutant” in experiment [2]; “The only positive hits in the kinome assay were MKK3, ABL, and an activating mutant” in experiment [3].
